The record followed here is article PMC3138742 (PLoS ONE, 2011).

Molecules are shown by their SMILES.

The target in one assay is ErbB4 (Homo sapiens, UniProt Q15303). As to conditions: ErbB4, cell-free; means ± SD. The protocol: (§1) The tyrosine kinase activities were determined using enzyme-linked immunosorbant assay (ELISA). The serine/threonine kinase activities were detected by Caliper Mobility Shift Assay on EZ Reader (Caliper Life Sciences, MA) according to the instruction.
The tyrosine kinase activities were determined in 96-well ELISA plates (Corning, NY, USA) precoated with 20 μg/mL Poly (Glu,Tyr)4:1. First, 80 μL of 5 μM ATP solution diluted in kinase reaction buffer (50 mM HEPES pH 7.4, 20 mM MgCl2, 0.1 mM MnCl2, 0.2 mM Na3VO4, 1 mM DTT) was added to each well. […] Subsequently, the kinase reaction was initiated by the addition of purified tyrosine kinase proteins diluted in 10 μL of kinase reaction buffer solution. Experiments at each concentration were performed in duplicate. After incubation for 60 min at 37 °C, the plate was washed three times with phosphate buffered saline (PBS) containing 0.1% Tween 20 (T-PBS). Next, 100 μL anti-phosphotyrosine antibody (PY99, 1:500 dilution) diluted in T-PBS containing 5 mg/mL BSA was added. After 30 min incubation at 37 °C, the plate was washed three times as before. Horseradish peroxidase-conjugated goat anti-mouse IgG (100 μL) diluted 1:2000 in T-PBS containing 5 mg/ml BSA was added. The plate was reincubated at 37 °C for 30 min, and then washed with PBS.

Assay [1] concerns NIH3T3-EGFR T790M/L858R cells. The assay is described as follows: Cell proliferation SRB assay. Type of assay: cell-based. As to conditions: 72 h. The protocol:
as §1
Cell viability was determined using sulforhodamine B assay. IC50 values were determined based on the results of three independent experiments. […] Whole-cell lysates were assayed for total EGFR and phosphorylation of EGFR by immunoblotting. […] Cell viability was determined using sulforhodamine B assay.
A general note: In SRB staining, fixed cells bind dye roughly in proportion to their protein.

ErbB4, sequence (Q15303 26-1308, species assumed): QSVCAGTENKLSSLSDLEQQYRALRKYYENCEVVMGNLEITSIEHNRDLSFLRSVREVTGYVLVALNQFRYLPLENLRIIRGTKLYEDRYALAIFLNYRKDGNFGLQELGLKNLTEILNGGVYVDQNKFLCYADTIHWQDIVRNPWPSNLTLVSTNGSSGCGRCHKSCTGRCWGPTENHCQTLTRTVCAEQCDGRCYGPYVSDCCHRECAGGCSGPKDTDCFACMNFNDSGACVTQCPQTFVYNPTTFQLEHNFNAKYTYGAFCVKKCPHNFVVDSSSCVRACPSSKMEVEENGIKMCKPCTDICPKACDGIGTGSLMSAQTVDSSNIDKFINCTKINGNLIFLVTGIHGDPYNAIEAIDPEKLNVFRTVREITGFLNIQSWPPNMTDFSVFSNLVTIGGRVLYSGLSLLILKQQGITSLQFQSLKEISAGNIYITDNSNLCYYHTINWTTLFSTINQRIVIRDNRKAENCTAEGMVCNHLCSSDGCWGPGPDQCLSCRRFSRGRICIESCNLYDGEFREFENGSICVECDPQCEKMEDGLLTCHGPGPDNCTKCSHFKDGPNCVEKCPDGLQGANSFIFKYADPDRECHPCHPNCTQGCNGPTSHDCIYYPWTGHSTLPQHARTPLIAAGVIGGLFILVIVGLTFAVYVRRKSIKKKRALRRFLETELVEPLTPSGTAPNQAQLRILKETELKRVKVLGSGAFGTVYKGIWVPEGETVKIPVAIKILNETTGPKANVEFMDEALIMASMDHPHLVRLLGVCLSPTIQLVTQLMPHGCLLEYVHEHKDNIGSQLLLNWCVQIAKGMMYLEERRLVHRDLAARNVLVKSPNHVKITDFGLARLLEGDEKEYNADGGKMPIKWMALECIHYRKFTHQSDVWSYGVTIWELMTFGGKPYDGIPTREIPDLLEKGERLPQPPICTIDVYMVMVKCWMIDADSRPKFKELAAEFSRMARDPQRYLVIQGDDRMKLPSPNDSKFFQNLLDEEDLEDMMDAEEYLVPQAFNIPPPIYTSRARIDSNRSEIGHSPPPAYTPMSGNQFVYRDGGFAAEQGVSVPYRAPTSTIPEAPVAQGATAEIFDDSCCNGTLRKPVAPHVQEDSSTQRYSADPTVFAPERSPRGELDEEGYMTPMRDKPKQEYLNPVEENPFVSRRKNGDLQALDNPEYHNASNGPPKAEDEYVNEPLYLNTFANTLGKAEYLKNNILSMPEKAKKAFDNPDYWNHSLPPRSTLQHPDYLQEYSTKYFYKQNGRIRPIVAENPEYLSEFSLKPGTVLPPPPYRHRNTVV

In general, IC50 refers to the point on the concentration scale where inhibition reaches its midpoint. Read a low IC50 as inhibition by little substance. `C=CC(=O)Nc1ccc2ncnc(Nc3ccc(OCc4cccc(F)c4)c(Cl)c3)c2c1` [AST1306] gave an IC50 against ErbB4 of 0.8 ± 0.3 nM. Also, the “inhibition of cell growth” value in assay [1] is “significant, concentration-dependent inhibition”.
